In data set [1] the target is T1, Lysine-specific histone demethylase 1A (Homo sapiens, UniProt O60341). The data set can be described thus: Inhibition of recombinant LSD1 ( unknown origin) expressed in Escherichia coli BL21 (DE3) cells using H3K4me2 peptide as substrate incubated for 30 mins in presence of FAD by fluorescence microplate reader analysis.
Data set [2] addresses T1, Lysine-specific histone demethylase 1A. As to the kind of experiment: Binding affinity to LSD1 in human BGC-823 cells assessed as thermal stability at 2 uM measured at 40 to 55 degreeC by cellular thermal shift assay. In kind it is cell-based.
For data set [3] the target is unchanged. As to the kind of experiment: Inhibition of LSD1 in human BGC-823 cells assessed as induction of H3K4me1 accumulation at 0.5 to 2 uM incubated for 5 days by Western blot analysis. In kind it is cell-based. As to conditions: dose 0.5-2 µM, time 5.0 day. In general terms: A western blot detects proteins with antibodies after separation by electrophoresis.
Data set [4] has the same target. The data set can be described thus: Inhibition of LSD1 in human BGC-823 cells assessed as induction of H3K4me2 accumulation at 0.5 to 2 uM incubated for 5 days by Western blot analysis. In kind it is cell-based. The note with it: dose 0.5-2 µM, time 5.0 day.
For data set [5], the system named is BGC-823. The data set can be described thus: Inhibition of stemness in human BGC-823 cells assessed as inhibition of OCT4 expression at 0.5 to 2 uM by Western blot analysis. The note with it: dose 0.5-2 µM. It counts as functional, cell-based.
The subject of data set [6] is BGC-823. As to the kind of experiment: Inhibition of stemness in human BGC-823 cells assessed as inhibition of SOX2 expression at 0.5 to 2 uM by Western blot analysis. It counts as functional, cell-based. As to conditions: dose 0.5-2 µM.
Data set [7] has as its system BGC-823. The data set can be described thus: Inhibition of stemness in human BGC-823 cells assessed as inhibition of Nanog expression at 0.5 to 2 uM by Western blot analysis. The note with it: dose 0.5-2 µM. In kind it is functional, cell-based.
The subject of data set [8] is BGC-823. The data set can be described thus: Inhibition of stemness in human BGC-823 cells assessed as inhibition of CD44 expression at 0.5 to 2 uM by Western blot analysis. It counts as functional, cell-based. As to conditions: dose 0.5-2 µM.
Data set [9] has as its system BGC-823. As to the kind of experiment: Inhibition of cell migration in human BGC-823 cells at 0.5 to 2 uM measured upto 48 hrs by fluorescence microscope based wound healing assay. In kind it is functional. As to conditions: dose 0.5-2 µM.
The subject of data set [10] is BGC-823. As to the kind of experiment: Downregulation of PD-L1 level in human BGC-823 cells incubated for 5 days by Western blot analysis. The note with it: dose 0.5-2 µM, time 5.0 day. In kind it is functional, cell-based.
In data set [11] the test system is MFC. As to the kind of experiment: Downregulation of PD-L1 level in MFC cells incubated for 5 days by Western blot analysis. In kind it is functional, cell-based. As to conditions: Mus musculus, dose 0.5-2 µM, time 5.0 day.
Data set [12] relates to BGC-823. As to the kind of experiment: Downregulation of PD-L1 mRNA level in human BGC-823 cells at 0.5 to 2 uM incubated for 5 days by qRT-PCR analysis. In kind it is functional, cell-based. The note with it: dose 0.5-2 µM, time 5.0 day.
For data set [13], the system named is MFC. As to the kind of experiment: Downregulation of PD-L1 mRNA level in MFC cells at 0.5 to 2 uM incubated for 5 days by qRT-PCR analysis. It counts as functional, cell-based. As to conditions: Mus musculus, dose 0.5-2 µM, time 5.0 day. For orientation: In qPCR the cycle at which signal appears reflects the starting amount.
The target of data set [14] is Programmed cell death protein 1/Programmed cell death 1 ligand 1 (Homo sapiens) (UniProt Q15116+Q9NZQ7). The data set can be described thus: Inhibition of Fc-tagged recombinant human PD-1 binding to PD-L1 in human BGC-823 cells incubated for 5 days by DAPI staining based confocal microscopic analysis. As to conditions: dose 0.5-2 µM, time 5.0 day. In kind it is cell-based.

Data set [15] deals with BGC-823. The data set can be described thus: Cytotoxicity against human BGC-823 cells co-cultured with T cells assessed as reduction in cell viability pretreated for 5 days followed by co-incubation with T cells for 4 days by CCK8 assay. The note with it: dose 0.5-2 µM, time 5.0 day. In kind it is functional, cell-based. For orientation: Formazan colour is commonly taken as a measure of viable cells.

In data set [16] the test system is BGC-823. As to the kind of experiment: Cytotoxicity against human BGC-823 cells co-cultured with T cells assessed as increase in 4-1BB mRNA level at 1 uM by qRT-PCR analysis. In kind it is functional, cell-based.
The test system of data set [17] is BGC-823. As to the kind of experiment: Cytotoxicity against human BGC-823 cells co-cultured with T cells assessed as increase in CCR7 mRNA level at 1 uM by qRT-PCR analysis. In kind it is functional, cell-based.
For data set [18], the system named is BGC-823. As to the kind of experiment: Cytotoxicity against human BGC-823 cells co-cultured with T cells assessed as increase in CCR10 mRNA level at 1 uM by qRT-PCR analysis. It counts as functional, cell-based.
Data set [19] concerns BGC-823. As to the kind of experiment: Cytotoxicity against human BGC-823 cells co-cultured with T cells assessed as increase in IFN-gamma mRNA level at 1 uM by qRT-PCR analysis. In kind it is functional, cell-based.
The test system of data set [20] is BGC-823. As to the kind of experiment: Cytotoxicity against human BGC-823 cells co-cultured with T cells assessed as increase in IL-2 mRNA level at 1 uM by qRT-PCR analysis. It counts as functional, cell-based.
In data set [21] the test system is BGC-823. The data set can be described thus: Cytotoxicity against human BGC-823 cells co-cultured with T cells assessed as increase in TNF-alpha mRNA level at 1 uM by qRT-PCR analysis. In kind it is functional, cell-based.
Data set [22] is described as follows: Toxicity in 615 mouse implanted with MFC cells assessed as change in body weight upto 50 mg/kg, IG measured after 14 days. It counts as organism-based. The note with it: in vivo, po, 336 h, time 14 day.
Data set [23] is described as follows: Toxicity in 615 mouse implanted with MFC cells assessed as liver damage upto 50 mg/kg, IG measured after 14 days. In kind it is organism-based. The note with it: in vivo, po, 336 h, time 14 day.
Data set [24] can be described thus: Toxicity in 615 mouse implanted with MFC cells assessed as kidney damage upto 50 mg/kg, IG measured after 14 days. In kind it is organism-based. The note with it: in vivo, po, 336 h, time 14 day.
In data set [25] the test system is MFC. As to the kind of experiment: Antitumor activity against MFC cells implanted in 615 mouse assessed as inhibition of tumor growth administered intragastrically for 14 days. It counts as functional, cell-based. As to conditions: dose 15-50 mg/kg, route ig, time 14.0 day.
In data set [26] the test system is MFC. The data set can be described thus: Antitumor activity against MFC cells implanted in 615 mouse assessed as reduction in tumor size at 15 to 50 mg/kg, IG administered for 14 days. The note with it: dose 15-50 mg/kg, time 14.0 day. In kind it is functional, organism-based.
The subject of data set [27] is MFC. As to the kind of experiment: Antiproliferative activity against MFC cells assessed as inhibition of cell proliferation at 2 uM incubated for 5 days by CCK8 assay. It counts as functional. As to conditions: Mus musculus, 120 h, time 5 day.
Data set [28] relates to MFC. The data set can be described thus: Antitumor activity against MFC cells implanted in 615 mouse assessed as decrease in PD-L1 expression in tumor administered intragastrically for 14 days by Western blot analysis. The note with it: dose 15-50 mg/kg, route ig, time 14.0 day. It counts as functional, cell-based.
Data set [29] relates to MFC. As to the kind of experiment: Antitumor activity against MFC cells implanted in 615 mouse assessed as increase in IFN-gamma mRNA level at 15 to 50 mg/kg, IG administered for 14 days by qRT-PCR analysis. In kind it is functional, organism-based. The note with it: dose 15-50 mg/kg, time 14.0 day.
The test system of data set [30] is MFC. As to the kind of experiment: Antitumor activity against MFC cells implanted in 615 mouse assessed as increase in TNF-alpha mRNA level at 15 to 50 mg/kg, IG administered for 14 days by qRT-PCR analysis. The note with it: dose 15-50 mg/kg, time 14.0 day. In kind it is functional, organism-based.
Data set [31] deals with MFC. The data set can be described thus: Antitumor activity against MFC cells implanted in 615 mouse assessed as increase in IL-2 mRNA level at 15 to 50 mg/kg, IG administered for 14 days by qRT-PCR analysis. In kind it is functional, organism-based. As to conditions: dose 15-50 mg/kg, time 14.0 day.

The record followed here is ChEMBL document CHEMBL5625213, “Novel acridine-based LSD1 inhibitors enhance immune response in gastric cancer” (Eur J Med Chem, 2023).

SMILES strings stand for the structures. Calls of active or inactive are those of the source. The rule behind the calls is not given here.

A word on the IC50: it is the concentration that gives 50% inhibition. Take `CN(C)c1ccc(Nc2c3ccccc3nc3c(N(C)C)cccc23)cc1`: in [1], the IC50 is over 10 µM.

Regarding `CN(C)C(=O)c1ccc(Nc2c3ccccc3nc3ccccc23)cc1`, the IC50 in data set [1] was over 10 µM.

`Cc1ccc2c(Nc3ccc(N(C)C)cc3)c3ccc([N+](=O)[O-])cc3nc2c1C`: the IC50 in [1] is over 10 µM.

As to `CN(C)Cc1ccc(Nc2c3ccccc3nc3ccccc23)cc1`, the IC50 in [1] was over 10 µM.

What is called inhibition is the relative decrease from the control value, in per cent. `Cc1ccc2nc3c(C)c(C)ccc3c(Nc3ccc(N(C)C)cc3)c2c1`: the IC50 in data set [1] amounted to 0.013 µM. The result (in data set [2]; in the data set on BGC-823 [12]; in the data set on MFC [13]; in the data set on BGC-823 [16]; in the data set on BGC-823 [17]; with BGC-823 [18]) was Active. Besides, the result in the data set on BGC-823 [19], with BGC-823 [20], in the data set on BGC-823 [21], in the data set with MFC [26], in the data set with MFC [29] and in the data set on MFC [30] was Active. Besides, in the data set on MFC [31], the result was Active. Moreover, the inhibition result (in data set [3]; in [4]; in the data set with BGC-823 [5]; in the data set with BGC-823 [6]; in the data set on BGC-823 [7]; in the data set with BGC-823 [8]) was “Active” each time. Moreover, in the data set on BGC-823 [9], the inhibition result is “Active”. For the same molecule, the Activity result in the data set on BGC-823 [10] was “Dose-Dependent Effect”; in the data set on MFC [11] it was “Dose-Dependent Effect”; in the data set on BGC-823 [15] it was “Dose-Dependent Effect”; in [22], “Non-Toxic”; in data set [23], “Non-Toxic”; in [24], “Non-Toxic”. For the same molecule, the Activity entry in the data set with MFC [25] and with MFC [28] was “Dose-Dependent Effect” each time. In addition, the inhibition entry in data set [14] was “Dose-Dependent Effect”. For the same molecule, the inhibition at 2 µM in the data set with MFC [27] is over 10%.
